These results are taken from patent publication US9974767B2, “Statins in the treatment of muscular dystrophies and myopathies” (University of Washington, priority 2014, dated 2018).

Holding throughout (format): in vivo, mouse
Assay [1] deals with mdx mice. Briefly: TA muscle function in situ (specific force, fatigue, recovery). Here is the method:
Hindlimb (TA) muscle physiology was measured in situ, which has the advantages of direct nerve stimulation and intact blood circulation. […] We also evaluated muscle fatigue resistance and recovery from fatigue, because this is a major cause of weakness in dystrophic muscle. TA muscle fatigue was assessed after 1 min and 2 min of repetitive tetanic contractions (2 sec apart). […] Recovery from muscle fatigue was measured every 2 min up to 10 min post fatigue.
Muscle degeneration and loss of function in DMD begins very early in the disease and progressively worsens over time. Consequently, useful therapeutic agents must be effective when administered at various stages of the disease. […] Hindlimb (TA) muscle physiology was measured in situ. This method has the advantages of direct nerve stimulation and intact blood circulation, which provides an essentially in vivo approach for measuring muscle function. Remarkably, specific muscle force increased by 40% (P<0.001) for mdx Sim compared to mdx Con mice, a dramatic increase for a pharmacological agent.
In addition to the loss of specific force, increased muscle fatigue and slowed force recovery are also significant causes of muscle weakness in DMD. Muscle fatigue in TA was measured during repetitive tetanic contractions (every 2 seconds) for a total of 2 minutes. For mdx Con mice, force declined rapidly during the early part of the fatigue and then much less steeply for the remainder of the contractions (FIG. 12A). In contrast, the force decline for mdx Sim was very similar to the WT groups, with a slow force drop over the first minute and then a greater decline over the last minute (see FIG. 12B). […] Recovery from fatigue was measured up to 10 min post fatigue (FIG. 12C). […] The cellular mechanisms of muscle fatigue are complex, however ROS are known to be an important cause of force loss during muscle fatigue.
Tibialis anterior (TA) muscle function was measured in situ. Mice were anaesthetized with an intraperitoneal injection of Avertin (625 mg/kg) and placed on a heated metal platform (37° C.). The distal TA tendon was dissected free and sutured to the lever arm of the force and length control system (305C-LR, Aurora Scientific). Muscle contraction was provided by stimulation of the Sciatic nerve using bipolar electrodes, which was kept moist during the experiment with PBS. The knee bone was firmly anchored to the platform via a steel pin. A length-force curve was generated by stimulating the muscle at 120 Hz (200 ms duration), every 90 sec, from short to long muscle lengths. […] Fatigue recovery was measured every 2 min up to 10 min post-fatigue. […] Membranes were incubated with enhanced chemiluminescence (ECL) reagent (Amersham) and bands were detected by the FluorChem M, imaging system (Protein Simple).

Assay [2] has as its system Phospholamban (PLB), SERCA2a. Briefly: SERCA2a, PLB S-16 and total PLB expression in cardiac muscle, immunoblotting. To be noted: old mdx mice, vs mdx Con. From the text: Aberrant Ca2+ handling in dystrophic cardiomyocytes leads to impaired relaxation, which is a major cause of diastolic dysfunction. […] Phospholamban (PLB) is a major inhibitor of SERCA activity and can therefore depress cardiac function.
In general terms: A western blot detects proteins with antibodies after separation by electrophoresis.

Assay [3] has as its system mdx mice. Briefly: Diaphragm fibrosis (fibronectin immunofluorescence, hydroxyproline assay for collagen I). The source says:
In order to be a viable treatment approach for DMD, a drug must be efficacious at different stages of the disease and target both skeletal and cardiac muscle. […] Diaphragm force production progressively declines with age in both mdx mice and DMD. […] The replacement of muscle fibers with fibrotic connective tissue is a major cause of impaired muscle force generation in DMD and therefore an important therapeutic target. […] Quantification of total collagen I levels by hydroxyproline assay indicated a 50% reduction in fibrosis for mdx Sim mice.
The diaphragm most closely recapitulates the functional deficits and fibrotic deposition that occur in DMD. […] Quantification of total collagen I levels in diaphragm muscles by hydroxyproline assay also indicated a 50% reduction in fibrosis for mdx Sim mice (FIG. 13E).
Muscles were imbedded in O.C.T compound and frozen in isopentane cooled in liquid nitrogen. […] For fluorescence quantification (CD68, fibronectin and myosin heavy chains), images were converted to grayscale in Image J and a threshold applied to calculate the area of fluorescence as a percent of the total area of the section. Fibers with central nuclei were expressed as a percent of total fibers with detectable nuclei (ie. both central and peripheral).
To quantify muscle fibrosis, Collagen I content was measured using the hydroxyproline assay. […]

In the case of `CCC(C)(C)C(=O)O[C@H]1C[C@@H](C)C=C2C=C[C@H](C)[C@H](CC[C@@H]3C[C@@H](O)CC(=O)O3)[C@H]21` [Simvastatin, simvastatin], in the assay with mdx mice [1] (mdx Sim), the “force recovery at 2 min post fatigue” value is reported as 80.9 % of the initial, pre-fatigue force and the “force recovery at 10 min post fatigue” value is 86.9%. For the same compound, in the assay with mdx mice [1] (mdx Sim vs mdx Con, treatment from 3 to 6 months of age), the “increase of hindlimb (TA) specific muscle force” value is recorded as 40%. The “TA force after 1 minute of fatigue” value in the assay on mdx mice [1] (mdx Sim, tetanic contractions every 2 sec, mdx Con 53%) is reported as 68 % of initial force. The “increase of PLB S-16” value in assay [2] came out at 55%. The “attenuation of fibrosis, fibronectin immunofluorescence” value in the assay with mdx mice [3] (diaphragm sections, old mdx Sim vs mdx Con) stood at 50%. In addition, the “reduction in fibrosis, total collagen I levels by hydroxyproline assay” value in the assay on mdx mice [3] (diaphragm, old mdx mice, 2 months treatment) is 50%.
